Reference: patent publication EP4741392A1, “1H-PYRAZOLO[4,3-C]PYRIDINE COMPOUND, AND COMPOSITION THEREOF AND USE THEREOF” (Shenzhen TargetRx Co., Ltd., priority 2023, dated 2025)

test system: Ramos cells with BTK WT; test: Phosphor-BTK(Y223) assay, suspended cells; format: cell-based; conditions: Homo sapiens, Ramos, phosphorylated BTK Y223, Ramos cells with BTK WT
Method in brief: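 Ramos BTK WT cells (2.5 k/well) were treated with compound dilutions for 2 h at 37 °C, then 5 mM Na3VO4 for 3 h. Lysates were read by HTRF p-BTK(Y223) cryptate/d2 antibodies overnight at RT (665/620 ratio). IC50 came from a four-parameter fit of % inhibition versus blank and positive-control wells.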

Compound	IC50 [nM]
COc1ccc(F)cc1C(=O)NCc1ccc(-c2ncc(-c3ccn4nccc4n3)c3[nH]nc(N)c23)cc1 [Example 46, N-(4-(3-amino-7-(pyrazolo[1,5-a]pyrimidin-5-yl)-1H-pyrazolo[4,3-c]pyridin-4-yl)benzyl)-5-fluoro-2-methoxybenzamide]	≤ 5
COc1ccc(F)cc1C(=O)NCc1ccc(-c2ncc(-c3nccn4nccc34)c3[nH]nc(N)c23)cc1 [Example 98, N-(4-(3-amino-7-(pyrazolo[1,5-a]pyrazin-4-yl)-1H-pyrazolo[4,3-c]pyridin-4-yl)benzyl)-5-fluoro-2-methoxybenzamide]	≤ 5
COc1ccc(F)cc1C(=O)NCc1ccc(-c2ncc(-c3ccc(C(=O)N4C[C@@H](C)O[C@H](C)C4)cn3)c3[nH]nc(N)c23)cc1 [Example 54, N-(4-(3-amino-7-(5-((2R,6R)-2,6-dimethylmoroholine-4-carbonyl)pyridin-2-yl)-1H-pyrazolo[4,3-c]pyridin-4-yl)benzyl)-5-fluoro-2-methoxybenzamide]	≤ 5
COc1ccc(F)cc1C(=O)NCc1ccc(-c2ncc(-c3ccc4cn[nH]c4n3)c3[nH]nc(N)c23)cc1 [Example 47, N-(4-(3-amino-7-(1H-pyrazolo[3,4-b]pyridin-6-yl)-1H-pyrazolo[4,3-c]pyridin-4-yl)benzyl)-5-fluoro-2-methoxybenzamide]	5 to 10
COc1ccc(F)cc1C(=O)NCc1ccc(-c2ncc(-c3ccc(N4CCOCC4)cn3)c3[nH]nc(N)c23)cc1 [Example 76, N-(4-(3-amino-7-(5-morpholinopyridin-2-yl)-1H-pyrazolo[4,3-c]pyridin-4-yl)benzyl)-5-fluoro-2-methoxybenzamide]	≤ 5
COc1ccc(F)cc1C(=O)NCc1ccc(-c2ncc(-c3ccc(F)cn3)c3[nH]nc(N)c23)c(F)c1 [Example 82, N-(4-(3-amino-7-(5-fluoropyridin-2-yl)-1H-pyrazolo[4,3-c]pyridin-4-yl)-3-fluorobenzyl)-5-fluoro-2-methoxybenzamide]	10 to 50
COc1ccc(F)cc1C(=O)NCc1ccc(-c2ncc(-c3ccc(P(C)(C)=O)cn3)c3[nH]nc(N)c23)cc1 [Example 56, N-(4-(3-amino-7-(5-(dimethylphosphoryl)pyridin-2-yl)-1H-pyrazolo[4,3-c]pyridin-4-yl)benzyl)-5-fluoro-2-methoxybenzamide]	≤ 5
COc1ccc(F)cc1C(=O)NCc1ccc(-c2ncc(-c3ccc(N4CCN(C)C[C@H]4C)cn3)c3[nH]nc(N)c23)cc1 [Example 75, (R)-N-(-4-(3-amino-7-(5-(2,4-dimethylpiperazin-1-yl)pyridin-2-yl) 1H-pyrazolo[4,3-c]pyridin-4-yl)benzyl)-5-fluoro-2-methoxybenzamide]	≤ 5
COc1ccc(F)cc1C(=O)NCc1ccc(-c2ncc(-c3ccn(CC(=O)N(C)C)n3)c3[nH]nc(N)c23)cc1 [Example 25, N-(4-(3-amino-7-(1-(2-(dimethylamino)-2-oxoethyl)-1H-pyrazol-3-yl)-1H-pyrazolo[4,3-c]pyridin-4-yl)benzyl)-5-fluoro-2-methoxybenzamide]	5 to 10
COc1ccc(F)cc1C(=O)NCc1ccc(-c2ncc(-c3nc4ccccc4s3)c3[nH]nc(N)c23)cc1 [Example 99, N-(4-(3-amino-7-(benzo[d]thiazol-2-yl)-1H-pyrazolo[4,3-c]pyridin-4-yl)benzyl)-5-fluoro-2-methoxybenzamide]	≤ 5
COc1ccc(F)cc1C(=O)NCc1ccc(-c2ncc(-c3ccc(C(F)F)cn3)c3[nH]nc(N)c23)cc1 [Example 48, N-(4-(3-amino-7-(5-(difluoromethyl)pyridin-2-yl)-1H-pyrazolo[4,3-c]pyridin-4-yl)benzyl)-5-fluoro-2-methoxybenzamide]	≤ 5
COc1ccc(F)cc1C(=O)NCc1ccc(-c2ncc(-c3ccc(F)cn3)c3[nH]nc(N)c23)cc1 [Example 21, N-(4-(3-amino-7-(5-fluoropyridin-2-yl)-1H-pyrazolo[4,3-c]pyridin-4-yl)benzyl)-5-fluoro-2-methoxybenzamide]	≤ 5
COCCOc1ccc(-c2cnc(-c3ccc(CNC(=O)c4cc(F)ccc4OC)cc3)c3c(N)n[nH]c23)nc1 [Example 59, N-(4-(3-amino-7-(5-(2-methoxyethoxy)pyridin-2-yl)-1H-pyrazolo[4,3-c]pyridin-4-yl)benzyl)-5-fluoro-2-methoxybenzamide]	≤ 5
COc1ccc(F)cc1C(=O)NCc1ccc(-c2ncc(-c3cn(C)cn3)c3[nH]nc(N)c23)cc1 [Example 30, N-(4-(3-amino-7-(1-methyl-1H-imidazol-4-yl)-1H-pyrazolo[4,3-c]pyridin-4-yl)benzyl)-5-fluoro-2-methoxybenzamide]	10 to 50
CCN1CCc2nc(-c3cnc(-c4ccc(CNC(=O)c5cc(F)ccc5OC)cc4)c4c(N)n[nH]c34)sc2C1 [Example 101, N-(4-(3-amino-7-(5-ethyl-4,5,6,7-tetrahydrothiazolo[5,4-c]pyridin-2-yl)-1H-pyrazolo[4,3-c]pyridin-4-yl)benzyl)-5-fluoro-2-methoxybenzamide]	≤ 5
C=CC(=O)N1CCCC(c2cc3[nH]nc(N)c3c(-c3ccc(CNC(=O)c4cc(F)ccc4OC)cc3)n2)C1 (stereo not drawn) [Example 96, N-(4-(6-(1-acryloylpiperidin-3-yl)-3-amino-1H-pyrazolo[4,3-c]pyridin-4-yl)benzyl)-5-fluoro-2-methoxybenzamide]	≤ 5
CCN1CCn2nc(-c3cnc(-c4ccc(CNC(=O)c5cc(F)ccc5OC)cc4)c4c(N)n[nH]c34)cc2C1 [Example 72, N-(4-(3-amino-7-(5-ethyl-4,5,6,7-tetrahydropyrazolo[1,5-a]pyrazin-2-yl)-1H-pyrazolo[4,3-c]pyridin-4-yl)benzyl)-5-fluoro-2-methoxybenzamide]	≤ 5
COc1ccc(F)cc1C(=O)NCc1ccc(-c2nc(C(C)C(F)(F)F)c(-c3cc(C)[nH]n3)c3[nH]nc(N)c23)cc1 (stereo not drawn) [Example 9, N-(4-(3-amino-7-(5-methyl-1H-pyrazol-3-yl)-6-(1,1,1-trifluoropropan-2-yl)-1H-pyrazolo[4,3-c]pyridin-4-yl)benzyl)-5-fluoro-2-methoxybenzamide]	5 to 10
COc1ccc(F)cc1C(=O)NCc1ccc(-c2ncc(-c3ccc(C)cn3)c3[nH]nc(N)c23)cc1 [Example 37, N-(4-(3-amino-7-(5-methylpyridin-2-yl)-1H-pyrazolo[4,3-c]pyridin-4-yl)benzyl)-5-fluoro-2-methoxybenzamide]	≤ 5
COc1ccc(F)cc1C(=O)NCc1ccc(-c2ncc(-c3ccc(Cl)cn3)c3[nH]nc(N)c23)cc1 [Example 38, N-(4-(3-amino-7-(5-chloropyridin-2-yl)-1H-pyrazolo[4,3-c]pyridin-4-yl)benzyl)-5-fluoro-2-methoxybenzamide]	≤ 5
COc1ccc(F)cc1C(=O)NCc1ccc(-c2ncc(-c3cnn(C)c3)c3[nH]nc(N)c23)cc1 [Example 22, N-(4-(3-amino-7-(1-methyl-1H-pyrazol-4-yl)-1H-pyrazolo[4,3-c]pyridin-4-yl)benzyl)-5-fluoro-2-oxybenzamide]	10 to 50
COc1ccc(F)cc1C(=O)NCc1ccc(-c2ncc(-c3nc4ccccn4n3)c3[nH]nc(N)c23)cc1 [Example 58, N-(4-(7-([1,2,4]triazolo[1,5-a]pyridin-2-yl)-3-amino-1H-pyrazolo[4,3-c]pyridin-4-yl)benzyl)-5-fluoro-2-methoxybenzamide]	≤ 5

same assay, conditions: Homo sapiens; phosphorylated BTK Y223, Ramos cells with BTK WT

Compound	IC50 [nM]
COc1ccc(F)cc1C(=O)NCc1ccc(-c2ncc(-c3cc(NC(=O)C4CC4)ccn3)c3[nH]nc(N)c23)cc1 [Example 80, N-(4-(3-amino-7-(4-(cyclopropaneformamido)pyridin-2-yl)-1H-pyrazolo[4,3-c]pyridin-4-yl)benzyl)-5-fluoro-2-methoxybenzamide]	≤ 5

same assay, conditions: phosphorylated BTK Y223, Ramos cells with BTK WT

Compound	IC50 [nM]
COc1ccc(F)cc1C(=O)NCc1ccc(-c2nc(C(C)C(F)(F)F)c(-c3ccn(C)n3)c3[nH]nc(N)c23)cc1 (single isomer, unassigned) [Example 6-2, N-(4-(3-amino-7-(1-methyl-1H-pyrazol-3-yl)-6-(1,1,1-trifluoropropan-2-yl)-1H-pyrazolo[4,3-c]pyridin-4-yl)benzyl)-5-fluoro-2-methoxybenzamide]	≤ 5
